Data published in patent publication US20240285631A1, “METHODS OF TREATING VASCULAR MALFORMATIONS” (priority 2023, published 2024).

System: human umbilical vein endothelial cells
Assay: Proliferation of human umbilical vein endothelial cells assessed by EdU uptake
Assay type: cell-based
Conditions: in vitro, dose response
Text: FIG. 16 illustrates palbociclib, CVT-313 and ribociclib dose response effects on proliferation of human umbilical vein endothelial cells assessed by EdU uptake.
This example discusses that endothelial cell cycle dysregulation is a mechanism involved in the development of arterio-venous malformations in HHT, as well as other types of vascular malformations named above. Palbociclib, a FDA-approved cell cycle inhibitor, could be used to prevent arterio-venous and other malformations, including venous, capillary, lymphatic and cerebral cavernous malformations.

Row | Structure (SMILES) | EC proliferation assessed by EdU uptake
1 | COc1ccc(CNc2nc(N(CCO)CCO)nc3c2ncn3C(C)C)cc1 [CVT-313, 2-[2-hydroxyethyl-[6-[(4-methoxyphenyl)methylamino]-9-propan-2-ylpurin-2-yl]amino]ethanol] | inhibit EC proliferation
2 | CN(C)C(=O)c1cc2cnc(Nc3ccc(N4CCNCC4)cn3)nc2n1C1CCCC1 [Ribociclib, 7-cyclopentyl-N,N-dimethyl-2-[(5-piperazin-1-ylpyridin-2-yl)amino]pyrrolo[2,3-d]pyrimidine-6-carboxamide] | inhibit EC proliferation
